{"source": "paper PMC6321291", "about": "“Synthesis, Biological Evaluation and Docking Studies of Benzoxazoles Derived from Thymoquinone” (Molecules, 2018)", "key": {"[1]": {"test_system": "phospho (Tyr 1135) -IGF1 Receptor β", "assay": "Western blot, IGF1 Receptor β activated form in HepG2 cells", "format": "cell-based, human", "conditions": "IC50 concentration", "procedure": "(§1) Protein lysates were lysed in the buffer 50 mM Tris HCl (pH 8), 150 mM NaCl, 1% NP-40, 0.5% sodium deoxycholate, 0.1% SDS and protease and phosphatase inhibitor cocktail (Roche, Basel, Switzerland). A total of 50 μg of proteins were resolved on 10% SDS polyacrylamide gels by use of Mini-protean cell (Bio-Rad, Hercules, CA, USA). Membranes were incubated with primary antibodies against phospho (Tyr 1135) -IGF1 Receptor β (1:1000, rabbit mAb, Cell Signalling Technology, Danvers, MA, USA), phospho (Ser 473) Akt (1:1000, rabbit mAb, Cell Signalling Technology) and α tubulin (1:1000, mouse mAb, Sigma Aldrich) at 4 °C overnight. Secondary antibody linked to anti-mouse was used at 1:1000 (Dako, Santa Clara, CA, USA) and to anti-rabbit at 1:1000 (Dako). Signals were visualized by Western Lightening Chemiluminescence Reagent Plus Kit (Perkin Elmer, USA) on the ImageQuant LAS500 (GE Healthcare, Chicago, IL, USA). Signal intensities of particular bands were normalized with the intensity of the loading control α tubulin and compared in Quantity One software (Bio-Rad). The values are expressed as average value of three independent experiments ± standard error of the mean. Statistical analysis was performed in Microsoft Excel (Microsoft Corporation, Redmond, WA, USA) by using the ANOVA (p < 0.05)."}, "phospho (Ser 473) Akt [2]": {"test_system": "phospho (Ser 473) Akt", "assay": "Western blot, pAkt in HepG2 cells", "format": "cell-based, human", "conditions": "IC50 concentration", "procedure": "as §1"}, "[3]": {"test_system": "HepG2 (hepatocellular carcinoma)", "assay": "MTT assay, HepG2", "format": "cell-based", "conditions": "Homo sapiens, 72 h", "procedure": "(§2) The tested compounds were dissolved in DMSO in five, 10-fold dilutions (0.01–100 µM). The cell lines HeLa (cervical carcinoma), SW620 (colorectal adenocarcinoma, metastatic), HepG2 (hepatocellular carcinoma), CFPAC-1 (ductal pancreatic adenocarcinoma), and WI38 (human lung fibroblast cell line), were cultured as monolayers and maintained in Dulbecco’s modified Eagle medium (DMEM) supplemented with 10% fetal bovine serum (FBS), 2 mM L-glutamine, 100 U mL^−1 penicillin and 100 μg mL^−1 streptomycin in a humidified atmosphere with 5% CO2 at 37 °C.\n(§3) The MTT assay was used for evaluation of effects of tested compounds on viability of carcinoma and control cell lines. About 5000 cells per well were seeded onto a series of standard 96-well plates on day 0. Test agents were then added and incubated for further 72 h. Working dilutions of tested compounds were freshly prepared in the growth medium, on the day of testing. The solvent (DMSO) was also tested for eventual inhibitory activity by adjusting its concentration to be the same as in the working concentrations (DMSO concentration never exceeded 0.1%). After 72 h of incubation, the cell growth rate was evaluated by performing the MTT assay: experimentally determined absorbance values were transformed into a cell percentage growth (PG) using the formulas proposed by NIH and described previously. This method directly relies on control cells number at the day of assay because it compares the growth of treated cells with the growth of untreated cells in control wells on the same plate, the results are therefore a percentile difference from the calculated expected value.\n(§4) If, however, all of the tested concentrations produce PGs exceeding the respective reference level of effect (e.g., PG value of 50) for a given cell line, the highest tested concentration is assigned as the default value (in the screening data report that default value is preceded by a “>” sign). Each test point was performed in quadruplicate in three individual experiments. The results were statistically analyzed (Analysis of variance (ANOVA), Tukey post-hoc test at p < 0.05). Finally, the effects of the tested substances were evaluated by plotting the mean percentage growth for each cell type in comparison to control on dose response graphs."}, "[4]": {"test_system": "SW620 (colorectal adenocarcinoma, metastatic)", "assay": "MTT assay, SW620", "format": "cell-based", "conditions": "Homo sapiens, SW-620, 72 h", "procedure": "as §2, §3, §4"}, "[5]": {"test_system": "HeLa (cervical carcinoma)", "assay": "MTT assay, HeLa", "format": "cell-based", "conditions": "Homo sapiens, 72 h", "procedure": "as §2, §3, §4"}, "[6]": {"test_system": "CFPAC-1 (ductal pancreatic adenocarcinoma)", "assay": "MTT assay, CFPAC-1", "format": "cell-based", "conditions": "Homo sapiens, 72 h", "procedure": "as §2, §3, §4"}, "[7]": {"assay": "MTT assay, WI38 healthy control", "format": "cell-based", "conditions": "WI38 human lung fibroblast cells, WI38 healthy control human fibroblast cell line", "procedure": "as §2, §3, §4"}, "[8]": {"test_system": "phospho (Tyr 1135) -IGF1 Receptor β", "assay": "Western blot, IGF1 Receptor β activated form in HeLa cells", "format": "cell-based, human", "conditions": "IC50 concentration, 24 and 48 h treatments", "procedure": "as §1"}, "phospho (Ser 473) Akt [9]": {"test_system": "phospho (Ser 473) Akt", "assay": "Western blot, pAkt in HeLa cells", "format": "cell-based, human", "conditions": "IC50 concentration, 48 h treatment", "procedure": "as §1"}}}
{"smiles": "Cc1c(O)cc(C(C)C)c2oc(-c3ccc(F)cc3)nc12", "note": "[1f, 2-(4-Fluorophenyl)-4-methyl-7-isopropyl-1,3-benzoxazole-5-ol]", "values": [{"measurement": "IGF1 Receptor β activated form expression (western blot)", "setting": "[1]; 24 h treatment", "value": "significantly decreased expression"}, {"measurement": "IGF1 Receptor β activated form expression (western blot)", "setting": "[1]; 48 h treatment", "value": "lack of signal"}, {"measurement": "inhibition of Akt phosphorylation (western blot)", "setting": "phospho (Ser 473) Akt [2]; 24 h treatment", "value": "significant effect"}, {"measurement": "pAkt signal (western blot)", "setting": "phospho (Ser 473) Akt [2]; 48 h treatment", "value": "absence of pAkt signal"}, {"measurement": "IC50", "setting": "[3]", "value": 9.36, "unit": "µM"}, {"measurement": "IC50", "setting": "[4]", "value": 5.82, "unit": "µM"}, {"measurement": "IC50", "setting": "[5]", "value": 4.13, "unit": "µM"}, {"measurement": "IC50", "setting": "[6]", "value": 33.8, "unit": "µM"}, {"measurement": "IC50 at 72 h", "setting": "[7]", "value": 5.54, "unit": "µM"}, {"measurement": "IGF1 Receptor β activated form expression (western blot)", "setting": "[8]", "value": "not detectable"}, {"measurement": "pAkt levels (western blot)", "setting": "phospho (Ser 473) Akt [9]", "value": "significantly decreased pAkt levels"}]}
